We go through three compounds from patent US8609723B2 (Beijing Dingguochangsheng Biotech., Co., Ltd., priority 2008, dated 2013).

For data set [1] the following is noted: background statement; cited from earlier work.
For data set [2], the system named is male ICR mice. The data set is described as follows: Tail suspension test in mice. Format: in vivo. Conditions: curcumin 10 mg/kg, Days 3 and 7 after administration, vs control group. Here is the method: The tail suspension test was carried out for each of these groups on Days 3, 7 and 14 after administration, except that such experiment was not performed for the curcumin group on Day 14. Tails of the mice were taped on a special iron stand at 1 cm from the tips, whilst keeping the mice staying at a height of 50 cm from ground. Performance of the mice was observed within 6 min, and the accumulative immobile time within the last 4 min was recoded for each mouse.

For data set [3], the system named is 5-HT, NA, DA and metabolites thereof in hippocampus. The data set is described as follows: Detection of monoamine and metabolites thereof in brains of mice. Type of data set: in vivo. Conditions: 10 mg/kg. Here is the method:
Hippocampus was collected immediately on ice, weighed, put into an Eppendorf tube and kept in refrigeratory at −80° C. To each 100 mg brain tissue, 200 μl ice-cooled Solution A (0.4 mol/L HCLO4) was added. The mixture was homogenized ultrasonically in a ice bath, kept in dark at 4° C. for 60 min, and centrifuged for 20 min (12,000 rpm, 4° C.). […] The mixture was vortexed thoroughly for 10 min, kept at 4° C. in dark for 60 min, and centrifuged again for 20 min (12,000 rpm, 4° C.). The supernatant was collected and measured for the content of monoamine. The contents of 5-HT, NA, DA, 5-HIAA and DOPAC in brain tissue were determined by High Effective Liquid Phase Electrochemistry. […] The contents of monoamine and metabolites thereof in brain tissue were shown as ng/g wet tissue weight.

Data set [4] relates to male ICR mice. The data set can be described thus: Forced swimming test of mice. Type of data set: in vivo. Conditions: curcumin 10 mg/kg, Days 3 and 7 after administration. Here is the method: The mice were forced to swim on Days 3, 7 and 14 after administration, except that such experiment was not performed for the curcumin group on Day 14.
Twenty four hours before the formal test, the mice were placed into a round glass container (height: 25 cm, diameter: 10 cm) filled with water (depth: 10 cm) with a temperature of 24±1° C., and forced to conduct swim training for 15 min. Twenty four hours later, the mice were placed into the round glass container filled with water (depth: 10 cm) again and forced to swim for 6 min. The accumulative immobile time within the last 4 min was observed and recorded for each mouse. The immobile time is intended to mean the period within which the mouse stops to struggle, floats in the water and keeps immobile, or only makes a few slight movements that are necessary to keep its head floating on the surface of water.

The subject of a further data set is S-180 cells. The data set can be described thus: Effect on apoptosis of tumor cells, cell cycle by flow cytometry. Type of data set: in vivo, mice. Conditions: sarcoma cell cycle, S-180 tumor fluid, 7 days. An excerpt: During the experiment, the mice were inoculated with S-180 cells (×10^7) in armpits. Seven days later, the mice were sacrificed by decollation and the tumors were removed. Tumor fluid was collected from tumors, and used for determining cell cycle by flow cytometry after ethanol fixation.

For a further data set, the system named is HCT116 cells. The data set is described as follows: Antitumor experiment of tumor HCT116-bearing mice. Format: in vivo. Conditions: 5-FU administered daily, 7 days. An excerpt: During the experiment, the mice were inoculated with HCT116 cells (×10^7) in armpits. […] Seven days later, the mice were sacrificed by decollation. The tumors were removed, and the mice and the tumors were weighed separately.

Another data set has as its system S-180 sarcoma cells. The data set is described as follows: Antitumor experiment of tumor S-180-bearing mice. Format: in vivo. Conditions: 5-FU administered daily, 7 days. An excerpt:
During the experiment, the mice were inoculated with S-180 sarcoma cells (×10^7) in armpits. […] Seven days later, the mice were sacrificed by decollation. The tumors were removed, and the mice and the tumors were weighed separately.

Data set [5] concerns chronically stressed rats. The data set can be described thus: Sugar water test of rats (chronic stress model). Conditions: imipramine 10 mg/kg, table title says (%), the values are: sugar water preference. Type of data set: in vivo. An excerpt: (§1) The rats in the normal control group were raised normally under a condition without any stimulation except for weighing body weight, measuring body temperature, and subjected to sugar test. All of other groups were subjected to stimulations of same type and same strength. During the experiment, different types of stimulations were applied in an unpredictable manner, and the same type of stimulation was enhanced each time.
(§2) The chronic stress course was 20 days in total, once per day, from 9:00 AM to 2:00 PM. The stress protocol was shown as follows: horizontally shaking at a high speed for 45 min; nipping tails (1 cm from the tail root): 1 min; depriving of water for 24 h; forbidding moving for 1.5 h; fasting for 24 h; stimulating with ice water (water temperature: 10° C.) for 5 min; electric shocking (1 mA, time course: is, 1 shock/min) the bottoms of feet for 30 min; changing cages and raising separately for 24 h; forbidding moving for 2 h; nipping tails (1 cm from the root of tail) for 1 min; depriving of water for 24 h; horizontally shaking at a high speed for 1.5 h; fasting for 24 h; nipping tails (1 cm from the tail root): 1 min; electric shocking (1 mA, time course: 1 s, 1 shock/min) the bottoms of feet for 40 min; stimulating with ice water for 5 min; changing cages and raising separately for 24 h; horizontally shaking at a high speed for 60 min; electric shocking (1 mA, time course: 1 s, 1 shock/min) the bottoms of feet for 50 min; depriving of water for 24 h; forbidding moving for 2.5 h; and 24 h social isolation.
Before this experiment, animals were trained to adapt to drink sugar water in a to quite room. Two bottles were placed simultaneously into each cage. For the first 24 h, these two bottles were both filled with 1% sugar water; and for the next 24 h, one of them was filled with 1% sugar water and the other was filled with pure water. Then after 23-hour water deprivation, the animals were tested for basic sugar water/pure water consumption. One bottle of 1% sugar water and one bottle of pure water were provided to each rat simultaneously. One hour later, the two bottles were weighed, and the total liquid consumption, sugar water consumption, pure water consumption, and the sugar water preference=sugar water consumption/total liquid consumption×100% were calculated, respectively. The experiment was performed after continuous administration of curcumin for 14 days.

Data set [6] concerns chronically stressed rats. The data set is described as follows: Measurement of body temperature of chronically stressed rats. Type of data set: in vivo. Conditions: imipramine 10 mg/kg intraperitoneally daily for 21 days, chronic stress.
From the text: as §1
as §2, with “The” for “The chronic stress course was 20 days in total, once per day, from 9:00 AM to 2:00 PM. The”
The front part of a digital thermometer was coated with liquid paraffin, and then inserted into the anus of a rat with a depth of approximately 1 cm. The temperature was read twice accordingly and averaged.

Data set [7] deals with chronically stressed rats. The data set is described as follows: Forced swimming test of rats (chronic stress model). Type of data set: in vivo. Conditions: imipramine 10 mg/kg intraperitoneally daily for 21 days.
From the text: as §1, §2
Please see FIG. 7. 24 hours before the formal test, rats were placed into a round glass container (height: 40 cm, diameter: 18 cm) filled with water (depth: 23 cm) with a temperature of 24±1° C., and forced to conduct swim training for 15 min. […] The accumulative immobile time within the last 4 min was observed and recorded for each rat. The immobile time is intended to mean the period within which the rat stops to struggle, floats in the water and keeps immobile, or only makes a few slight movements that are necessary to keep its head floating on the surface of water.

Another data set deals with serum corticosterone. The data set is described as follows: Determination of the content of serum corticosterone (chronic stress model). Format: in vivo. To be noted: stressed rats, imipramine 10 mg/kg daily, day after 21-day stress.
From the text: as §1, §2
In this experiment, the content of serum corticosterone was measured by a competitive method, with its mechanism shown as follow: antigens in samples and enzyme-labeled antigens compete to bind antibodies in a solid phase. The more antigens exist in samples, the less enzyme-labeled antigens bind to the solid phase, thereby resulting in a fainter coloration.
On the next day after the end of the 21-day stress period, rats were sacrificed by decollation, and 5˜10 ml whole blood was collected. A portion of the collected whole blood was kept at room temperature for 20 min, followed by centrifugation at 1000 rpm for 10 min. Serum was then separated and stored at −80° C. The serum corticosterone detection kit was used for such detection.

[8] abbreviates: first line of group (Day 3 presumed).
Setting [9] is: second line of group (Day 7 presumed).

`COc1cc(/C=C/C(=O)CC(=O)/C=C/c2ccc(O)c(OC)c2)ccc1O` [Curcumin, curcumin, reference compound]: the half life entry in [1] is given as “approximately 1 hour”. In the data set with male ICR mice [2], the “reduction of tail suspension accumulative immobile time” value is given as “no significant difference”. In addition, in data set [3] (setting [8]), the “Hippocampus 5-HIAA” value is 175.7 ± 13.8 ng/g, the “Hippocampus 5-HIAA/5-HT” value turned out to be 0.32 ± 0.03, the “Hippocampus 5-HT” value worked out at 541.2 ± 31.8 ng/g and the “Hippocampus DOPAC” value was 12.4 ± 1.2 ng/g. Further, in [3] (setting [8]), the “Hippocampus Dopamine” value worked out at 19.1 ± 3.6 ng/g and the “Hippocampus Noradrenaline” value turned out to be 245.6 ± 12.2 ng/g. Besides, in [3] (setting [9]), the “Hippocampus 5-HIAA” value is on record as 179.2 ± 14.9 ng/g, the “Hippocampus 5-HIAA/5-HT” value worked out at 0.33 ± 0.03, the “Hippocampus 5-HT” value is 534.6 ± 28.9 ng/g and the “Hippocampus DOPAC” value came out at 11.9 ± 1.8 ng/g. In data set [3] (setting [9]), the “Hippocampus Dopamine” value is recorded as 18.8 ± 5.4 ng/g and the “Hippocampus Noradrenaline” value was 246.6 ± 11.2 ng/g. Besides, in the data set with male ICR mice [4], the “reduction of accumulative immobile time in the forced swimming test” value was “did not significantly reduce”.

Consider `O=c1[nH]cc(F)c(=O)[nH]1` [Example 5-FU, 5-FU, reference compound], for which, in the data set on S-180 cells, the “APO % (apoptosis level of tumor cells)” value is given as 29.1%, the G1 % is reported as 35.1%, the G2 % was 11.7% and the S % is reported as 53.2%. Also, in the data set on HCT116 cells, the “inhibitory rate of tumors” value worked out at 52.8%. Moreover, in the data set with S-180 sarcoma cells, the “inhibitory rate of tumors” value worked out at 55.8%.

In data set [5], `CN(C)CCCN1c2ccccc2CCc2ccccc21` [Imipramine, imipramine, reference compound] displayed a Sugar water volume after stress of 67.5 ± 5% and a Sugar water volume before stress of 74.8 ± 7.8%. For the same compound, the “Body temperature after stress” value in data set [6] is 36.34 ± 0.083 °C. The “reduced the accumulative immobile time of the forced swimming test” value in [7] is recorded as 40.5%. For the same compound, the serum corticosterone in the data set on serum corticosterone was found to be 137.0 ± 15.3 nmol/L.
